Measurements from patent US5654178A, “Immunoassay for tetrachloroisophthalonitrile (chlorothalonil), its derivatives and breakdown products” (ISK Biosciences Corporation, priority 1995, dated 1997).
In brackets after ≈: the same amount, converted by molar mass. Where two headings read alike, the source gives them in different places.

Assays:
[1] = system: mAb 6F9; assay: TCPN EIA, reactivity profile with monoclonal antibody; format: binding, mouse; conditions: for IC50: 10 min; for % Cross Reactivity: relative to TCPN
Method: (§1) The following immunoassay protocol was followed
(§2) 1. Microplates were prepared by binding screening conjugate Cl-O-AHT to the polystyrene surface.
(§3) 2. An appropriately diluted sample (200 μl) and the anti-TCPN antibody conjugated to horse radish peroxidase (50 μl) were added and incubated for 10 minutes.
(§4) 3. The wells were rinsed, and 200 μl of substrate, tetramethyl benzidine (TMB), was added to the wells.
(§5) 4. The plates were incubated for a further 10 minutes and 50 μl of stop solution (1.5% NaF) was added.
(§6) 5. The color reaction was read by measuring absorbance at 650 nm.
(§7) The cross reactivity of various TCPN derivatives and other benzene ring-based haptens were assessed using the above antibody preparations.

[2] = system: polyclonal anti-TCPN antibody; assay: TCPN EIA, reactivity profile with polyclonal antibody; format: binding; conditions: for IC50: 10 min; for % Cross Reactivity: relative to TCPN
Method: as §1, §2, §3, §4, §5, §6, §7

[3] = system: human skin; conditions: cited from earlier work
[4] = system: experimental animals; conditions: cited from earlier work
[5] = cited from earlier work
[6] = Solubility; format: physicochemical
[7] = water or polar organic solvents

For `N#Cc1c(N)c(Cl)c(Cl)c(C#N)c1Cl` [4-aminoTCPN, 4-amino-2,5,6-trichloroisophthalonitrile], the IC50 [1] was 2.4 ppb, the “% Cross Reactivity” value [1] was 92% and the IC50 [2] was 43 ppb. For the same compound, the “% Cross Reactivity” value [2] was 12%.
With `NC(=O)c1c(Cl)c(Cl)cc(C(=O)O)c1Cl` [acid/amide TCPN, 3-carbamyl-2,4,5-trichlorobenzoic acid] the IC50 [1] was > 10^4 ppb, the “% Cross Reactivity” value [1] was under 0.01% and the IC50 [2] was > 10^4 ppb. The “% Cross Reactivity” value [2] was under 0.01%.
With `N#Cc1c(Cl)c(O)c(Cl)c(C#N)c1Cl` [5-hydroxyTCPN, 5-hydroxy-2,4,6-trichloroisophthalonitrile] the IC50 [1] was 7.0 ppb, the “% Cross Reactivity” value [1] was 31% and the IC50 [2] was 800 ppb. The “% Cross Reactivity” value [2] was 0.6%.
With `COC(=O)Nc1nc2ccccc2[nH]1` [MBC, carbendazim] the IC50 [1] was > 10^4 ppb, the “% Cross Reactivity” value [1] was under 0.01% and the IC50 [2] was > 10^4 ppb. The “% Cross Reactivity” value [2] was under 0.01%.
For `CCc1cccc(CC)c1N(COC)C(=O)CCl` [Alachlor], the IC50 [1] was > 10^4 ppb, the “% Cross Reactivity” value [1] was under 0.01% and the IC50 [2] was > 10^4 ppb. The “% Cross Reactivity” value [2] was under 0.01%.
With `CCc1cccc(C)c1N(C(=O)CCl)C(C)COC` (stereo not drawn) [Metolachlor] the IC50 [1] was > 10^4 ppb, the “% Cross Reactivity” value [1] was under 0.01% and the IC50 [2] was > 10^4 ppb. The “% Cross Reactivity” value [2] was under 0.01%.
In the case of `N#Cc1c(Cl)c(Cl)c(Cl)c(C#N)c1Cl` [TCPN, tetrachloroisophthalonitrile], the allergic reaction ([3]; exposed humans) is given as “stimulates an allergic reaction, leading to an IgE antibody response”, the contact dermatitis ([3]; production plant and field) is given as “associated with contact dermatitis” and the sensitizing properties ([3]; tested directly on human skin) is given as “sensitizing properties”. For the same compound, the sensitizing properties [4] was “sensitizing properties”, the solubility in water [5] was “practically insoluble in water” and the IC50 [1] was 2.2 ppb. For the same compound, the “% Cross Reactivity” value [1] was 100%, the IC50 [2] was 5.0 ppb and the “% Cross Reactivity” value [2] was 100%.
With `CCNc1nc(Cl)nc(NC(C)C)n1` [Atrazine] the IC50 [1] was > 10^4 ppb, the “% Cross Reactivity” value [1] was under 0.01% and the IC50 [2] was > 10^4 ppb. The “% Cross Reactivity” value [2] was under 0.01%.
With `N#Cc1c(S)c(Cl)c(Cl)c(C#N)c1Cl` [4-mercaptoTCPN, 4-mercapto-2,5,6-trichloroisophthalonitrile] the IC50 [1] was 4.8 ppb, the “% Cross Reactivity” value [1] was 46% and the IC50 [2] was 10 ppb. The “% Cross Reactivity” value [2] was 60%.
In the case of `CCCN(CCC)c1c([N+](=O)[O-])cc(C(F)(F)F)cc1[N+](=O)[O-]` [Trifluralin], the IC50 [1] is reported as > 10^4 ppb, the “% Cross Reactivity” value [1] is reported as under 0.01% and the IC50 [2] is reported as > 10^4 ppb. The “% Cross Reactivity” value [2] was under 0.01%.
In the case of `N#Cc1c(Cl)c(C#N)c(Cl)c(OC(=O)CC(=O)O)c1Cl` [BK-489-36], the solubility ([6]; dmf, organic solvent or mixture, read-out: solubility) is reported as 4500 µg/mL (≈ 13.5 mM).
With `N#Cc1c(Cl)c(Cl)c(Cl)c(C(N)=O)c1Cl` [amide TCPN, 2,4,5,6-tetrachloro-3-cyanobenzamide] the IC50 [1] was 800 ppb, the “% Cross Reactivity” value [1] was 2.8% and the IC50 [2] was 700 ppb. The “% Cross Reactivity” value [2] was 0.7%.
With `N#Cc1c(Cl)c(C#N)c(Cl)c(OC(=O)NCC(=O)O)c1Cl` [BK-489-35] the solubility [6, 7] was “extremely low solubility”.
For `Clc1c(Cl)c(Cl)c(Cl)c(Cl)c1Cl` [HCB, hexachlorobenzene], the IC50 [1] was > 10^4 ppb, the “% Cross Reactivity” value [1] was under 0.01% and the IC50 [2] was > 10^4 ppb. For the same compound, the “% Cross Reactivity” value [2] was under 0.01%.
For `N#Cc1c(Cl)c(N)c(Cl)c(C#N)c1Cl` [5-amino-TCPN, 5-amino-2,4,6-trichloroisophthalonitrile], the IC50 [1] was 1.9 ppb, the “% Cross Reactivity” value [1] was 116% and the IC50 [2] was 43 ppb. The “% Cross Reactivity” value [2] was 12%.
With `N#Cc1c(Cl)c(C#N)c(Cl)c(NC(=O)NCC(=O)O)c1Cl` [BK-489-41] the solubility [6, 7] was “high solubility”.
For `N#Cc1c(O)c(Cl)c(Cl)c(C#N)c1Cl` [4-hydroxyTCPN, 4-hydroxy-2,5,6-trichloroisophthalonitrile], the IC50 [1] was 8.0 ppb, the “% Cross Reactivity” value [1] was 28% and the IC50 [2] was 1010 ppb. For the same compound, the “% Cross Reactivity” value [2] was 0.5%.
For `CCCCNC(=O)n1c(NC(=O)OC)nc2ccccc21` [Benomyl], the IC50 [1] was > 10^4 ppb, the “% Cross Reactivity” value [1] was under 0.01% and the IC50 [2] was > 10^4 ppb. For the same compound, the “% Cross Reactivity” value [2] was under 0.01%.
With `N#Cc1c(Cl)c(Cl)c(Cl)c(Cl)c1Cl` [PCBN, pentachlorobenzonitrile] the IC50 [1] was 30 ppb, the “% Cross Reactivity” value [1] was 7.3% and the IC50 [2] was 60 ppb. For the same compound, the “% Cross Reactivity” value [2] was 8.3%.
